# Measurements as given in patent publication US12318385B2, “Pharmaceutical composition comprising PARP inhibitors” (Jiangsu Hengrui Medicine CO., LTD., priority 2018, dated 2025).
# Like-named read-outs stand apart in the source and are kept apart here.
# Assay: Solubility of compound represented by formula I in different solvents
# Assay type: physicochemical
# Details: for solubility at 30 min: thermodynamic from solid, read-out: Approximate Solubility
# Method: Referring to tests under the General Notices, Volume II, Chinese Pharmacopoeia 2010, excessive compounds represented by formula I which were grinded to fine powder were weighed and transferred in a certain amount of solvent (25° C.±2° C.), and shaken vigorously for 30 s every 5 min. The dissolution of the drug was observed within 30 min. Then the solution was filtered, the initial filtrate was discarded, and the concentration of the successive filtrate was tested. The solubility was calculated.
compound,measurement,setting,value
O=C(c1cc(Cc2n[nH]c(=O)c3ccccc23)ccc1F)N1CCn2nc(C(F)(F)F)nc2C1 [Compound represented by formula I],Solubility (descriptive term),Acetone,slightly soluble
same,Solubility (descriptive term),Anhydrous Ethanol,very slightly soluble
same,Solubility (descriptive term),Tetrahydrofuran,slightly soluble
same,solubility at 30 min,"aqueous buffer, Acetate Buffer pH 4.5, 25° C.±2° C.",0.85 µg/mL
same,solubility at 30 min,"aqueous buffer, Phosphate Buffer pH 6.8, 25° C.±2° C.",0.59 µg/mL
same,solubility at 30 min,"aqueous with cosolvent or surfactant or cyclodextrin, 5% Polysorbate 80 Aqueous Solution, 25° C.±2° C.",19.5 µg/mL
same,Solubility (descriptive term),conventional aqueous solvents,practically insoluble
same,solubility at 30 min,"organic solvent or mixture, Acetone, 25° C.±2° C.",4960 µg/mL
same,solubility at 30 min,"organic solvent or mixture, Anhydrous Ethanol, 25° C.±2° C.",458 µg/mL
same,solubility at 30 min,"organic solvent or mixture, Tetrahydrofuran, 25° C.±2° C.",8550 µg/mL
same,solubility at 30 min,"simulated gastric fluid, 0.1 mol/L Hydrochloric Acid, 25° C.±2° C.",0.78 µg/mL
